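48-hour exposure; five concentrations; linearly interpolated endpoints. The concentration for 50% growth inhibition is given as GI50. TGI is the concentration that stops growth completely.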
What was measured:
Assay in all cases: NCI anticancer screen, dose series, 48 h
ACHN renal = test system: ACHN renal
OVCAR-8 ovarian = test system: OVCAR-8 ovarian
MDA-MB-231 breast = test system: MDA-MB-231 breast
OVCAR-4 ovarian = test system: OVCAR-4 ovarian
MDA-MB-435 = test system: MDA-MB-435
SF-539 CNS = test system: SF-539 CNS
SK-MEL-5 melanoma = test system: SK-MEL-5 melanoma
SNB-19 CNS = test system: SNB-19 CNS
HCC-2998 colon = test system: HCC-2998 colon
NCI/ADR-RES ovarian = test system: NCI/ADR-RES ovarian

SMILES	TGI (ACHN renal) [µM]	TGI (OVCAR-8 ovarian) [µM]	TGI (MDA-MB-231 breast) [µM]	TGI (OVCAR-4 ovarian) [µM]	TGI (MDA-MB-435) [µM]	TGI (SF-539 CNS) [µM]	TGI (SK-MEL-5 melanoma) [µM]	TGI (SNB-19 CNS) [µM]	TGI (HCC-2998 colon) [µM]	GI50 (NCI/ADR-RES ovarian) [µM]	TGI (NCI/ADR-RES ovarian) [µM]	GI50 (ACHN renal) [µM]	GI50 (OVCAR-8 ovarian) [µM]	GI50 (MDA-MB-231 breast) [µM]	GI50 (OVCAR-4 ovarian) [µM]	GI50 (MDA-MB-435) [µM]	GI50 (SF-539 CNS) [µM]	GI50 (SK-MEL-5 melanoma) [µM]	GI50 (SNB-19 CNS) [µM]	GI50 (HCC-2998 colon) [µM]
O=C(c1ccc(Cl)cc1)C1OC12C(=O)Nc1ccccc12 (stereo not given)	28.5	36	50.5	34.1	35.5	30.6	24.6	86.7	34.1	–	–	–	–	–	–	–	–	–	–	–
CC1=C(C(=O)Nc2ccc(Cl)c(Cl)c2)C(c2ccccc2O)NC(=O)N1 (stereo not given)	> 50	> 50	> 50	> 50	> 50	> 50	> 50	> 50	–	> 50	> 50	> 50	24.8	28	42.7	27.4	43.7	22.5	> 50	–
FC1OC2OC1C(OCc1ccccc1)C(OCc1ccccc1)C2OCc1ccccc1 (stereo not given)	–	> 100	–	> 100	–	> 100	> 100	> 100	–	–	–	–	–	–	–	–	–	–	–	–
CN1CCc2c1nc(-c1ccc([N+](=O)[O-])cc1)c1c2N(C)CC1	> 100	> 100	–	> 100	–	> 100	> 100	> 100	> 100	–	–	–	–	–	–	–	–	–	–	–
COc1ccc(CCc2cc(OC)c(OC)c(OC)c2)cc1	76.9	32.2	15.7	> 92.5	0.0345	0.146	12	> 100	2.82	–	> 100	–	–	–	–	–	–	–	–	–
S=c1nc(-c2ccnc(-c3nc(=S)[nH][nH]3)c2)[nH][nH]1	> 100	> 100	–	> 100	–	> 100	> 100	> 100	> 100	–	–	–	–	–	–	–	–	–	–	–
COc1ccc(S(=O)(=O)N(C)CC(=O)O)cc1	> 100	> 100	–	> 100	–	> 100	> 100	> 100	> 100	–	–	–	–	–	–	–	–	–	–	–
CCCCCCCCCCCCCCCCOC(=O)c1cc(O)cc(C(=O)OCCCCCCCCCCCCCCCC)c1	> 100	> 100	–	> 100	–	–	> 100	> 100	> 100	–	–	–	–	–	–	–	–	–	–	–
O=C(Nc1cccc(NC(=O)c2cc(=O)c3ccccc3o2)n1)c1cc(=O)c2ccccc2o1	> 100	> 100	–	> 100	–	> 100	> 100	> 100	> 100	–	–	–	–	–	–	–	–	–	–	–
COc1cc2cc3c4c(cc(OC)c(OC)c4c2cc1OC)CCN3C(=O)CCC(=O)NCCCN(C)C	> 100	> 100	–	> 100	–	59.3	28.2	> 100	> 100	–	–	–	–	–	–	–	–	–	–	–
OCNCCNc1nc2ccccc2c2[nH]c3ccccc3c12	2.24	8.41	3.77	–	5.11	0.863	4.09	11.7	–	7.17	22.6	0.38	0.809	1.24	–	1.46	0.189	1.28	2.1	–
CC(NC(=O)c1ccccc1)(C(=O)O)C(=O)O	> 100	> 100	> 100	> 100	> 100	> 100	> 100	> 100	–	–	> 100	–	–	–	–	–	–	–	–	–
CCOC(=O)C(NC(=O)c1[nH]cnc1/N=N/N(C)C)C(C)C (stereo not given)	> 100	> 100	–	> 100	–	> 100	> 100	> 100	> 100	–	–	–	–	–	–	–	–	–	–	–
CCOC(=O)[C@H]1Nc2ccccc2C2c3ccccc3CC21 (stereo not given in full)	> 100	> 100	–	> 100	–	> 100	54.6	> 100	> 100	–	–	–	–	–	–	–	–	–	–	–
CN(C=O)/C=C/c1cc(O)ccc1O	29.7	72.4	–	33.6	–	> 65.4	> 66.9	> 100	> 100	–	–	–	–	–	–	–	–	–	–	–
COC(=O)CCCC(=O)NC1=C(NCc2ccccc2)C(=O)c2ccccc2C1=O	> 100	> 100	> 100	> 100	> 100	> 100	–	> 100	> 100	–	> 100	–	–	–	–	–	–	–	–	–
COc1cc2c(c(OC)c1OC)-c1ccc(SC)c(=O)cc1[C@@H](NC(=O)c1ccc(Cl)cc1)CC2	> 100	> 100	–	> 100	–	< 0.01	< 0.01	11.1	< 0.01	–	–	–	–	–	–	–	–	–	–	–
CO[C@@]12[C@@H]3NC3CN1C1=C(C(=O)C(N)=C(C)C1=O)[C@@H]2COC(N)=O (stereo not given in full)	1.63	–	> 54.8	33.9	8.3	–	0.631	–	2.02	3.45	> 90.5	–	–	8.95	2.22	1.13	–	–	–	0.46
Cc1cc([N+](=O)[O-])c(C)c(Br)c1C	> 100	> 100	> 100	> 100	> 100	> 100	> 100	> 100	–	–	> 100	–	–	–	–	–	–	–	–	–
COc1cccc(/C=C/C(=O)c2cc3c(N)c(C(=O)Nc4cccc5ccccc45)sc3nc2C)c1	4.36	4.08	3.26	> 50	–	2.8	3.09	> 50	2.79	1.33	5.75	1.23	1.23	1.22	2.65	–	1.17	1.21	1.69	1.14
CC1OC(OC2CCC3(C=O)C4CCC5(C)C(C6=CC(=O)OC6)CCC5(O)C4CCC3(O)C2)C(O)C(O)C1O (stereo not given)	6.36e-05	6.21e-05	0.0025	3.33e-05	7.77e-05	5.65e-05	–	0.0657	–	–	6.17e-05	–	–	–	–	–	–	–	–	–
O=C1C=CC2(C=C1)C[C@H](NC(=O)C(F)(F)F)C(=O)O2	> 100	> 100	–	> 100	–	> 100	> 100	> 100	> 100	–	–	–	–	–	–	–	–	–	–	–
C[C@@H]1C[C@]2(C[C@@H](C)C3[C@@H](CC4(C)[C@@H]5CCC6C(C)(C)OC(=O)C=C[C@]67C[C@@]5(CC[C@]34C)OO7)O2)OC1=O (stereo not given in full)	> 100	> 100	–	64.4	–	> 100	> 100	> 100	> 100	–	–	–	–	–	–	–	–	–	–	–

SMILES	TGI (ACHN renal) [µM]	TGI (OVCAR-8 ovarian) [µM]	TGI (MDA-MB-231 breast) [µM]	TGI (OVCAR-4 ovarian) [µM]	TGI (MDA-MB-435) [µM]	TGI (SF-539 CNS) [µM]	TGI (SK-MEL-5 melanoma) [µM]	TGI (SNB-19 CNS) [µM]	TGI (HCC-2998 colon) [µM]	GI50 (NCI/ADR-RES ovarian) [µM]	TGI (NCI/ADR-RES ovarian) [µM]	GI50 (ACHN renal) [µM]	GI50 (OVCAR-8 ovarian) [µM]	GI50 (MDA-MB-231 breast) [µM]	GI50 (OVCAR-4 ovarian) [µM]	GI50 (MDA-MB-435) [µM]	GI50 (SF-539 CNS) [µM]	GI50 (SK-MEL-5 melanoma) [µM]	GI50 (SNB-19 CNS) [µM]	GI50 (HCC-2998 colon) [µM]
COc1ccc(C2CCc3cc4c(cc3/C2=N/OC(C)=O)OCO4)cc1OC (stereo not given)	–	> 100	–	> 100	–	35.7	23	> 100	–	–	–	–	–	–	–	–	–	–	–	–
Cc1cc(Cl)cc2c1NC(=O)C2=O (tested in a mixture with another compound)	> 100	> 100	–	> 100	–	> 100	> 100	> 100	> 100	–	–	–	–	–	–	–	–	–	–	–
COC(=O)CC(C(C(C)=O)C(=O)OCc1ccccc1)N1C(=O)OCC1c1ccccc1 (stereo not given)	> 100	> 100	–	> 100	–	> 100	> 100	> 100	> 100	–	–	–	–	–	–	–	–	–	–	–
CC(=O)OC1CC2C(=O)C(=O)C1(C)C2(C)C (stereo not given)	> 100	> 100	> 100	> 100	> 100	–	> 100	> 100	> 100	–	> 100	–	–	–	–	–	–	–	–	–
CSC1=NCC2(S1)c1ccccc1N(C(=O)OC(C)(C)C)C2N1CCCCC1 (stereo not given)	–	> 100	> 100	> 100	–	> 100	> 100	–	> 100	> 100	> 100	–	> 100	41.8	> 100	–	> 100	> 100	–	31
Nc1[nH]c(=O)ncc1CO	> 100	> 100	> 100	> 100	> 100	> 100	> 100	> 100	> 100	–	–	> 100	> 100	> 100	> 100	> 100	> 100	> 100	> 100	> 100
CCSC(SCC)=C1C(=O)N(c2ccccc2)N=C1C	29.4	24.4	–	–	–	–	33.1	62.8	27.6	–	–	–	–	–	–	–	–	–	–	–
CN1CCN(c2nc(-c3ccncc3)nc3sc4c(c23)CCCCCC4)CC1	20.5	26.3	18.7	28	26	21	20.5	–	13.2	8.17	24.5	7.99	12.2	4.26	12.7	11.8	8.32	7.94	–	3.91
C[N+](C)(C)CC1CCCC(C[N+](C)(C)C)C1O (stereo not given)	> 100	> 100	–	> 100	–	> 100	> 100	–	> 100	–	–	–	–	–	–	–	–	–	–	–
CCCCCCCCCCCCOP(N)(=O)OCCCCCCCCCCCC	> 100	> 100	–	–	–	> 100	–	> 100	> 100	–	–	–	–	–	–	–	–	–	–	–
COc1cccc(NC(=O)C(=O)C(C(C)=O)c2nc3ccc(Cl)cc3[nH]c2=O)c1 (stereo not given)	> 100	> 100	–	> 100	–	> 100	> 100	> 100	> 100	–	–	–	–	–	–	–	–	–	–	–
CNC(=O)CN(CC(N)=O)C(N)=O	> 100	> 100	–	> 100	–	> 100	> 100	> 100	> 100	–	–	–	–	–	–	–	–	–	–	–
Cc1c(C(=O)CSc2nc3ccccc3[nH]2)c(=O)n(-c2ccccc2)n1C	> 100	> 100	–	> 100	–	> 100	> 100	> 100	> 100	–	–	–	–	–	–	–	–	–	–	–
CS(=O)(=O)NC12CCC(c3ccccc31)c1ccccc12	> 100	–	> 100	> 100	> 100	> 100	> 100	> 100	–	–	> 100	–	–	–	–	–	–	–	–	–
CCN(CC)CCN(C(=O)C(C)(C)C)c1ccccc1N	> 100	> 100	–	> 100	–	> 100	> 100	> 100	–	–	> 100	–	–	–	–	–	–	–	–	–
CC1(C)CC[C@]2(C(N)=O)CC[C@]3(C)C(=CC[C@@H]4[C@@]5(C)C/C(=C/c6ccncc6)C(=O)C(C)(C)[C@@H]5CC[C@]43C)[C@@H]2C1	4.33	> 100	4.15	> 100	–	3.34	3.27	3.24	3.45	2.42	6.99	2.02	3.2	1.86	3	–	1.81	1.77	1.59	1.87
CCCCCCCCCCCCCc1nn[nH]n1	42.2	81.1	–	35.4	–	32.2	32.5	33	33.7	–	–	–	–	–	–	–	–	–	–	–
CCOc1ccc(C(CN2CCOCC2)C(C)=O)cc1OC (stereo not given)	27.3	37.7	–	33.3	–	32.8	35.2	32	32.3	–	–	–	–	–	–	–	–	–	–	–
COc1nc(NC2OC(COC(C)=O)C(OC(C)=O)C(OC(C)=O)C2OC(C)=O)c(-c2csc(N)n2)c(=O)n1C (stereo not given)	> 100	> 100	–	> 100	–	> 100	> 100	> 100	–	–	–	–	–	–	–	–	–	–	–	–
COC(=O)/C(=N\NC(N)=S)C(C#N)c1ccccc1 (stereo not given)	> 100	> 100	–	> 100	–	> 100	> 100	> 100	> 100	–	–	–	–	–	–	–	–	–	–	–
Cc1ccc(NC(=O)CC(=O)N2N=C(N(CCC#N)c3cccc(C)c3)CC2c2ccccc2)cc1 (stereo not given)	> 100	> 100	–	> 100	–	> 100	> 100	> 100	> 100	–	–	–	–	–	–	–	–	–	–	–
CCC1CNC(=O)CC1CC(=O)OC (stereo not given)	> 100	–	–	> 100	–	–	> 100	> 100	> 100	–	–	–	–	–	–	–	–	–	–	–
COc1ccccc1NC(=O)C(CC(C(=O)Nc1ccccc1OC)/C(C)=N/Nc1ccc([N+](=O)[O-])cc1[N+](=O)[O-])/C(C)=N/Nc1ccc([N+](=O)[O-])cc1[N+](=O)[O-] (stereo not given)	> 100	> 100	–	> 100	–	> 100	> 100	> 100	> 100	–	–	–	–	–	–	–	–	–	–	–

Reference: PubChem BioAssay (NCI)
